Test results as given in patent US9089507B2 (priority 2006, dated 2015).
≈ marks a conversion by molar mass, not a printed value. Read-outs that look alike come from different tables or passages of the source.

How the values were obtained:
in vivo = conditions: female, CD-1, mouse, 32 mg/kg
B. anthracis spores = conditions: mouse, in vivo
B. anthracis = assay: microbe, parasite or virus in culture; type: cell-based, Bacillus anthracis
[1] = female, CD-1, mouse, in vivo, 32 mg/kg

CN[C@H](CC(C)C)C(=O)N[C@H]1C(=O)N[C@@H](CC(N)=O)C(=O)N[C@H]2C(=O)N[C@H]3C(=O)N[C@H](C(=O)N[C@H](C(=O)O)c4cc(O)cc(O)c4-c4cc3ccc4O)[C@H](O[C@H]3C[C@](C)(N)[C@@H](O)[C@H](C)O3)c3ccc(c(Cl)c3)Oc3cc2cc(c3O[C@@H]2O[C@H](CO)[C@@H](O)[C@H](O)[C@H]2O[C@H]2C[C@](C)(NCc3ccc(-c4ccc(Cl)cc4)cc3)[C@@H](O)[C@H](C)O2)Oc2ccc(cc2Cl)[C@H]1O [Oritavancin, N-(4-(4-chlorophenyl)benzyl)A82846B]
AUC (in vivo; ip): 840 µg·h/mL | Cmax (in vivo; ip): 95 µg/mL | AUC (in vivo; iv): 950 µg·h/mL | Cmax (in vivo; iv): 270 µg/mL | spore/tissue load at the termination of the study (B. anthracis spores): ≤ 5×10^4 CFU/g tissue | MIC90 with polysorbate-80 lower than MIC90 in the absence of polysorbate-80 (B. anthracis): 16 fold | MIC90 (B. anthracis; Bacillus anthracis): 0.12 mg/L (≈ 0.0669 µM) | time-to-peak (Tmax) ([1]; ip): 4 h | time plasma concentration remained above the MIC for the Ames strain ([1]; iv): 24 to 48 h | time-to-peak (Tmax) ([1]; iv): 0.25 h
